Experimental data: publication PMC9090415, “Discovery of small molecule inhibitors of Plasmodium falciparum apicoplast DNA polymerase” (Journal of Enzyme Inhibition and Medicinal Chemistry, 2022)

Target: P. falciparum apicoplast DNA polymerase (Pf-apPOL) (Plasmodium falciparum, UniProt Q8ILY1)
Test: Fluorescence-based high-throughput DNA polymerase assay (molecular beacon), primary screen and dose-response
Format: biochemical
Settings: for DNA Pol: 90 min, 10 µM; for % inhibition apPOL 180' 2.5 / % inhibition apPOL 180' 5 / % inhibition apPOL 180' 10 / % inhibition apPOL 180' 20 / % inhibition apPOL 180' 40 / % inhibition apPOL 180' 80: read at 180'
Summary of the method: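 Single-point screening used 10 µM compound with 20 nM polymerase, 20 nM hairpin substrate and 6 µM dNTPs for 90 min at 25 °C. Confirmatory titrations (2.5–80 µM) followed fluorescence at three times, and IC50 was derived from a fit including a cooperativity term n.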

[1] = 'DNA Pol' of the 186 hits list (primary screen value)

Sequence of P. falciparum apicoplast DNA polymerase (Pf-apPOL) (Q8ILY1 entry or part of it): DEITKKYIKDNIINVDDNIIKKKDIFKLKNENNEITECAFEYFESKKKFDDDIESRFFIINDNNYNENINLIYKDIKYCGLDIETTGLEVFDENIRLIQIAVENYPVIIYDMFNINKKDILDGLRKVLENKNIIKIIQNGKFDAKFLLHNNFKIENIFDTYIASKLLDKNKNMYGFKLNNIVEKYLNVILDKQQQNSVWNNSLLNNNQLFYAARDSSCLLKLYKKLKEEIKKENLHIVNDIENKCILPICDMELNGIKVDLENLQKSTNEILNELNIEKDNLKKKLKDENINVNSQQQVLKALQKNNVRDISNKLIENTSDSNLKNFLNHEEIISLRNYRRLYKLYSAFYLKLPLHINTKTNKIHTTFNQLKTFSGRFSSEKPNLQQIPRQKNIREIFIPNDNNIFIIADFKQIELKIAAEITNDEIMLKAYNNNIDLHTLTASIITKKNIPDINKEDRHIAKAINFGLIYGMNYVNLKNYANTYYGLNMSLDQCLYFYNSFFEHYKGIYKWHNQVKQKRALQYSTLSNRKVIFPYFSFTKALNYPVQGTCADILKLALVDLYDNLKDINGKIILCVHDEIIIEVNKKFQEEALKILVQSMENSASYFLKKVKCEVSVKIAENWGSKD

## O=C1CCCC2=C1C(c1ccccn1)C1=C(CCCC1=O)O2 [KU0194228]
[1]
  DNA Pol: 11
DNA Pol (primary screen value)
  DNA Pol: 11
DRC-1, concentration 2.5
  % inhibition Apo pol 10': 1.279%
  % inhibition Apol 90': 2.669%
  % inhibition apPOL 180': 5.61%
DRC-1, concentration 5
  % inhibition Apo pol 10': 9.9789%
  % inhibition Apol 90': 9.934%
  % inhibition apPOL 180': 16.0813%
DRC-1, concentration 10
  % inhibition Apo pol 10': 33.5344%
  % inhibition Apol 90': 28.061%
  % inhibition apPOL 180': 29.7893%
DRC-1, concentration 20
  % inhibition Apo pol 10': 43.7332%
  % inhibition Apol 90': 43.923%
  % inhibition apPOL 180': 44.3828%
DRC-1, concentration 40
  % inhibition Apo pol 10': 62.1087%
  % inhibition Apol 90': 56.4118%
  % inhibition apPOL 180': 53.3605%
DRC-1, concentration 80
  % inhibition Apo pol 10': 77.9707%
  % inhibition Apol 90': 74.3626%
  % inhibition apPOL 180': 68.1872%
DRC-2, concentration 2.5
  % inhibition Apo pol 5': 5%
  % inhibition Apol 40': 2.6%
  % inhibition ApPOL 90': 2%
  % inhibition apPOL 180': -0.328%
DRC-2, concentration 5
  % inhibition Apo pol 5': 4%
  % inhibition Apol 40': -9%
  % inhibition ApPOL 90': -14%
  % inhibition apPOL 180': -74%
DRC-2, concentration 10
  % inhibition Apo pol 5': 22%
  % inhibition Apol 40': 15%
  % inhibition ApPOL 90': 18%
  % inhibition apPOL 180': 22%
DRC-2, concentration 20
  % inhibition Apo pol 5': 33%
  % inhibition Apol 40': 33%
  % inhibition ApPOL 90': 37%
  % inhibition apPOL 180': 41%
DRC-2, concentration 40
  % inhibition Apo pol 5': 44%
  % inhibition Apol 40': 46%
  % inhibition ApPOL 90': 49%
  % inhibition apPOL 180': 48%
DRC-2, concentration 80
  % inhibition Apo pol 5': 43%
  % inhibition Apol 40': 52%
  % inhibition ApPOL 90': 58%
  % inhibition apPOL 180': 60%

## CC(C)(C)OC(=O)COc1ccc2cc(-c3ccccc3)c(=O)oc2c1 [Molecule 81, O=C(OC(C)(C)C)COc1ccc2c(c1)oc(=O)c(c2)c1ccccc1]
[1]
  DNA Pol: 44
DNA Pol (primary screen value)
  DNA Pol: 44
DRC-1, concentration 2.5
  % inhibition Apo pol 10': -2.0657%
  % inhibition Apol 90': 2.03%
  % inhibition apPOL 180': 5.717%
DRC-1, concentration 5
  % inhibition Apo pol 10': -5.666%
  % inhibition Apol 90': 3.443%
  % inhibition apPOL 180': 14.8656%
DRC-1, concentration 10
  % inhibition Apo pol 10': 3.988%
  % inhibition Apol 90': 16.0875%
  % inhibition apPOL 180': 30.2199%
DRC-1, concentration 20
  % inhibition Apo pol 10': 8.332%
  % inhibition Apol 90': 22.5271%
  % inhibition apPOL 180': 41.9896%
DRC-1, concentration 40
  % inhibition Apo pol 10': 16.7579%
  % inhibition Apol 90': 30.9519%
  % inhibition apPOL 180': 50.3603%
DRC-1, concentration 80
  % inhibition Apo pol 10': 23.4286%
  % inhibition Apol 90': 41.1721%
  % inhibition apPOL 180': 64.7026%
DRC-2, concentration 2.5
  % inhibition Apo pol 5': 8%
  % inhibition Apol 40': 5.4%
  % inhibition ApPOL 90': 3.57%
  % inhibition apPOL 180': -1.44%
DRC-2, concentration 5
  % inhibition Apo pol 5': 10%
  % inhibition Apol 40': -3%
  % inhibition ApPOL 90': -14%
  % inhibition apPOL 180': -93%
DRC-2, concentration 10
  % inhibition Apo pol 5': 23%
  % inhibition Apol 40': 19%
  % inhibition ApPOL 90': 13%
  % inhibition apPOL 180': 1.59%
DRC-2, concentration 20
  % inhibition Apo pol 5': 28%
  % inhibition Apol 40': 25%
  % inhibition ApPOL 90': 18%
  % inhibition apPOL 180': 2.69%
DRC-2, concentration 40
  % inhibition Apo pol 5': 36%
  % inhibition Apol 40': 33%
  % inhibition ApPOL 90': 27%
  % inhibition apPOL 180': 13%
DRC-2, concentration 80
  % inhibition Apo pol 5': 44%
  % inhibition Apol 40': 44%
  % inhibition ApPOL 90': 38%
  % inhibition apPOL 180': 23%

## Cc1cc2[nH]c(C(=O)Nc3ccc(F)cc3)c(CN3CCOCC3)c2s1 [Molecule 60, Fc1ccc(cc1)NC(=O)c1[nH]c2c(c1CN1CCOCC1)sc(c2)C]
186 hits, DNA Pol (screen value), unit not given
  DNA Pol: 24
'DNA Pol' (screen value), unit not given
  DNA Pol: 24
DRC-1, read at 10', concentration 2.5
  % inhibition Apo pol 10' 2.5: -2.4883%
DRC-1, read at 10', concentration 5
  % inhibition Apo pol 10' 5: 6.203%
DRC-1, read at 10', concentration 10
  % inhibition Apo pol 10' 10: 25.0572%
DRC-1, read at 10', concentration 20
  % inhibition Apo pol 10' 20: 44.6815%
DRC-1, read at 10', concentration 40
  % inhibition Apo pol 10' 40: 69.9494%
DRC-1, read at 10', concentration 80
  % inhibition Apo pol 10' 80: 76.8011%
DRC-1, read at 90', concentration 2.5
  % inhibition Apol 90' 2.5: -5.041%
DRC-1, read at 90', concentration 5
  % inhibition Apol 90' 5: 0.952%
DRC-1, read at 90', concentration 10
  % inhibition Apol 90' 10: 13.5518%
DRC-1, read at 90', concentration 20
  % inhibition Apol 90' 20: 29.567%
DRC-1, read at 90', concentration 40
  % inhibition Apol 90' 40: 56.5635%
DRC-1, read at 90', concentration 80
  % inhibition Apol 90' 80: 73.0205%
DRC-1, concentration 2.5
  % inhibition apPOL 180' 2.5: -7.929%
DRC-1, concentration 5
  % inhibition apPOL 180' 5: -4.0377%
DRC-1, concentration 10
  % inhibition apPOL 180' 10: 4.226%
DRC-1, concentration 20
  % inhibition apPOL 180' 20: 14.1958%
DRC-1, concentration 40
  % inhibition apPOL 180' 40: 39.4222%
DRC-1, concentration 80
  % inhibition apPOL 180' 80: 63.0707%
DRC-2, concentration 40
  % inhibition Apo pol 5': 38%
  % inhibition apPOL 180' 40: 53%
DRC-2, concentration 20
  % inhibition ApPOL 90': 38%
  % inhibition apPOL 180' 20: 28%
DRC-2, read at 5', concentration 2.5
  % inhibition Apo pol 5' 2.5: -2.34%
DRC-2, read at 5', concentration 5
  % inhibition Apo pol 5' 5: 3.5%
DRC-2, read at 5', concentration 10
  % inhibition Apo pol 5' 10: 20%
DRC-2, read at 5', concentration 20
  % inhibition Apo pol 5' 20: 33%
DRC-2, read at 5', concentration 40
  % inhibition Apo pol 5' 40: 38%
DRC-2, read at 5', concentration 80
  % inhibition Apo pol 5' 80: 36%
DRC-2, read at 40', concentration 2.5
  % inhibition Apol 40' 2.5: 0.384%
DRC-2, read at 40', concentration 5
  % inhibition Apol 40' 5: 3.72%
DRC-2, read at 40', concentration 10
  % inhibition Apol 40' 10: 21%
DRC-2, read at 40', concentration 20
  % inhibition Apol 40' 20: 40%
DRC-2, read at 40', concentration 40
  % inhibition Apol 40' 40: 57%
DRC-2, read at 40', concentration 80
  % inhibition Apol 40' 80: 60%
DRC-2, read at 90', concentration 2.5
  % inhibition ApPOL 90' 2.5: 0.312%
DRC-2, read at 90', concentration 5
  % inhibition ApPOL 90' 5: 2.6%
DRC-2, read at 90', concentration 10
  % inhibition ApPOL 90' 10: 18%
DRC-2, read at 90', concentration 20
  % inhibition ApPOL 90' 20: 38%
DRC-2, read at 90', concentration 40
  % inhibition ApPOL 90' 40: 59%
DRC-2, read at 90', concentration 80
  % inhibition ApPOL 90' 80: 65%
DRC-2, concentration 2.5
  % inhibition apPOL 180' 2.5: -2.7%
DRC-2, concentration 5
  % inhibition apPOL 180' 5: -0.247%
DRC-2, concentration 10
  % inhibition apPOL 180' 10: 11%
DRC-2, concentration 80
  % inhibition apPOL 180' 80: 66%

## O=C(NC(C(Cl)Cl)S(=O)(=O)c1ccccc1)c1ccccc1 (stereo not shown) [KU0045239]
[1]
  DNA Pol: 41
DNA Pol (primary screen value)
  DNA Pol: 41
DRC-1, concentration 2.5
  % inhibition Apo pol 10': 21.4346%
  % inhibition Apol 90': 13.64%
  % inhibition apPOL 180': 5.305%
DRC-1, concentration 5
  % inhibition Apo pol 10': 25.395%
  % inhibition Apol 90': 16.8163%
  % inhibition apPOL 180': 7.81%
DRC-1, concentration 10
  % inhibition Apo pol 10': 48.7805%
  % inhibition Apol 90': 39.9321%
  % inhibition apPOL 180': 29.3225%
DRC-1, concentration 20
  % inhibition Apo pol 10': 67.0388%
  % inhibition Apol 90': 58.936%
  % inhibition apPOL 180': 48.9159%
DRC-1, concentration 40
  % inhibition Apo pol 10': 77.5747%
  % inhibition Apol 90': 71.3995%
  % inhibition apPOL 180': 64.7265%
DRC-1, concentration 80
  % inhibition Apo pol 10': 80.3513%
  % inhibition Apol 90': 76.3715%
  % inhibition apPOL 180': 71.27%
DRC-2, concentration 2.5
  % inhibition Apo pol 5': 4%
  % inhibition Apol 40': 11%
  % inhibition ApPOL 90': 11%
  % inhibition apPOL 180': 6.53%
DRC-2, concentration 5
  % inhibition Apo pol 5': 18%
  % inhibition Apol 40': 25%
  % inhibition ApPOL 90': 24%
  % inhibition apPOL 180': 11%
DRC-2, concentration 10
  % inhibition Apo pol 5': 26%
  % inhibition Apol 40': 36%
  % inhibition ApPOL 90': 35%
  % inhibition apPOL 180': 21%
DRC-2, concentration 20
  % inhibition Apo pol 5': 59%
  % inhibition Apol 40': 69%
  % inhibition ApPOL 90': 68%
  % inhibition apPOL 180': 58%
DRC-2, concentration 40
  % inhibition Apo pol 5': 65%
  % inhibition Apol 40': 76%
  % inhibition ApPOL 90': 76%
  % inhibition apPOL 180': 69%
DRC-2, concentration 80
  % inhibition Apo pol 5': 46%
  % inhibition Apol 40': 62%
  % inhibition ApPOL 90': 64%
  % inhibition apPOL 180': 58%
